Measurements from article PMC3744471, “Mitochondria Are the Target Organelle of Differentiation-Inducing Factor-3, an Anti-Tumor Agent Isolated from Dictyostelium Discoideum” (PLoS ONE, 2013).
Like-named read-outs stand apart in the source and are kept apart here. Blank lines part the entries; values can stand above or below the molecule they belong to.

Columns and labels:
HeLa cells = assay: Cell growth assay (Alamar blue), HeLa; format: cell-based, human
Description: HeLa, LM8, and 3T3-L1 cells were cultured for 3 days at 2.5–5×10^3 cells/well in 12-well plates with each well filled with 1 ml of DMEM-FBS (for HeLa and 3T3-L1) or MEM-α-FBS (for LM8) together with drugs at various concentrations. Then, the incubation media were discarded and the cells were washed with 1 ml of PBS(–) (20 mM phosphate buffered saline, pH 7.4) and incubated with 1 ml of fresh DMEM-FBS (HeLa and 3T3-L1) or MEM-α-FBS (LM8) containing 5% (v/v) of Alamar blue (a cell number indicator; Wako Pure Chemical Industries, Osaka, Japan) until the color changed. […] Relative cell numbers were determined for each concentration for each drug and the IC50 was determined from the dose-response curves.

LM8 cells = assay: Cell growth assay (Alamar blue), LM8; format: cell-based, mouse; conditions: Mus musculus, 72 h; LM8 cells, 3 days, Alamar blue
Description: (§1) HeLa, LM8, and 3T3-L1 cells were cultured for 3 days at 2.5–5×10^3 cells/well in 12-well plates with each well filled with 1 ml of DMEM-FBS (for HeLa and 3T3-L1) or MEM-α-FBS (for LM8) together with drugs at various concentrations. Then, the incubation media were discarded and the cells were washed with 1 ml of PBS(–) (20 mM phosphate buffered saline, pH 7.4) and incubated with 1 ml of fresh DMEM-FBS (HeLa and 3T3-L1) or MEM-α-FBS (LM8) containing 5% (v/v) of Alamar blue (a cell number indicator; Wako Pure Chemical Industries, Osaka, Japan) until the color changed. The relative cell number was assessed by measuring absorbance at 570 nm (reference at 595 nm) as described previously, [14]; DIF-related compounds and BODIPY-conjugated compounds hardly disturbed the cell number assessment with Alamar blue (data not shown), probably because the additive compounds were washed out when cell number was assessed. For determination of the 50% inhibitory concentration (IC50) of each drug, the cells were cultured for 3 days in the presence of each drug at various concentrations. Relative cell numbers were determined for each concentration for each drug and the IC50 was determined from the dose-response curves.
(§2) Supplementary file pone.0072118.s001.tif: Figure S1 Effects of BODIPY-DIF-3 and CCCP on cell growth, and cellular localization of BODIPY-DIF-3 in LM8 cells. (A) Cells were incubated for 4 days with 5–20 µM of BODIPY-DIF-3 (closed circles) or 2–10 µM of CCCP (closed triangles), and relative cell number was assessed by the use of Alamar blue. Data are the mean values and SD (bars) of three independent experiments. (B) Cells were incubated for 0.5 h or 3 days with 20 µM of BODIPY-DIF-3, washed free of the additive, and observed microscopically. (C) Cells were incubated for 0.5 h with BODIPY-DIF-3 (20 µM), Hoechst (0.1 µg/ml), and MitoTracker (0.1 µM), washed free of the additives, and observed by using a high-magnification fluorescence microscope. (D) Cells were incubated for 3 days with BODIPY-DIF-3 (20 µM) and then for 0.5 h with Hoechst (0.1 µg/ml) and MitoTracker (0.1 µM). Cells were washed free of the additives and observed by using a high-magnification fluorescence microscope. (TIF) Click here for additional data file.

3T3-L1 cells = assay: Cell growth assay (Alamar blue), 3T3-L1; format: cell-based, mouse; conditions: Mus musculus, 72 h; 3T3-L1 cells, 3 days, Alamar blue
Description: as §1
as §2, with “pone.0072118.s002.tif:” for “pone.0072118.s001.tif:”, “S2” for “S1”, “3T3-L1” for “LM8”

mouse liver mitochondria = assay: Mitochondrial oxygen consumption (Clark-type oxygen electrode); format: biochemical
Description: Mitochondria were isolated from mouse liver (ICR; 7–10 week-old females) by differential centrifugation as described previously. Cells were homogenized in a Potter glass homogenizer with H-Buffer (250 mM sucrose, 10 mM Tris-HCl pH 7.4), and centrifuged at 800g for 1 min at 4°C. The supernatant was centrifuged at 6,000g for 5 min, and the resulting pellet, the crude mitochondrial fraction, was suspended in H-Buffer. The suspension was layered over a discontinuous sucrose gradient consisting of 1.1 M and 1.6 M sucrose in a Tris buffer (10 mM Tris-HCl pH 7.4), and centrifuged for 3 h at 90,000g at 4°C. The interface was collected in Tris buffer and centrifuged at 6,000g for 5 min. The resulting pellets were suspended in Tris buffer and used for experiments after confirming the presence of the mitochondrial marker cytochrome c.
Mitochondrial oxygen consumption was determined using a Clark-type oxygen electrode (Strathkelvin Instruments Ltd., North Lanarkshire, Scotland) as described, [39]. The mitochondria-enriched fraction was incubated at 30°C in oxygen measurement buffer (225 mM mannitol, 75 mM sucrose, 10 mM KCl, 0.1 mM EDTA, 3 mM phosphate, 5 mM succinate, 5 mM glutamate, and 20 mM Tris-HCl pH 7.4) in the presence or absence of various concentrations of the DIF-like molecules or CCCP. After recording ‘State 4’ of the respiration reaction, an aliquot of ADP was added to a final concentration of 200 µM to induce ‘State 3’. The PC100 (100% promoting concentration) of each additive was defined as the drug concentration that doubled the basal rate of oxygen consumption during State 3, which was calculated from the dose-response plot for the rate of oxygen consumption (Figure 8).

[1] = system: mitochondrial respiration; set-up: method as in PMID 7777565; conditions: in D. discoideum; read-out: IC50 for inhibition (uncoupling) of mitochondrial respiration; cited from earlier work
[2] = system: mitochondrial malate dehydrogenase (mMDH); set-up: method as in PMID 20173310; conditions: cited from earlier work
[3] = system: calmodulin-dependent cyclic nucleotide phosphodiesterase (PDE1); set-up: method as in PMID 15059913; conditions: cited from earlier work
[4] = system: cyclin D1 and cyclin D3 in HeLa cells; assay: Western blotting of cyclin D expression; format: cell-based, human; conditions: 20 h, DIF-3 20 µM, Bu-DIF-3 5–7.5 µM, BODIPY-DIF-3 20 µM, CCCP 10 µM, azide 0.01%
Description: HeLa cells were incubated for 20 h with 1 ml of DMEM-FBS containing the indicated additives in 12-well plates (2–4×10^5 cells/well), washed twice with PBS(–), harvested by adding 100–200 µl of an SDS-sample buffer solution (in proportion to cell density: relative cell number), sonicated (heated), and used for SDS-PAGE. Western blot transfer and immunoblotting were performed as described previously, by using a primary antibody for cyclin D1, cyclin D2, cyclin D3, or GAPDH, and a second antibody, an alkaline phosphatase-conjugated anti-mouse or anti-rabbit IgG antibody. […] Visualized protein bands were then digitized and quantified by using Adobe Photoshop CS4 (version 11.0) (Adobe, San Jose, CA, USA) and ImageJ Software (version 1.4) (http://rsb.info.nih.gov/ij/).

IC50 (HeLa cells; Homo sapiens, 72 h, HeLa cells, 3 days, Alamar blue): > 20 µM
Structure (SMILES): CCCCNC(=O)CCC1=[N+]2C(=Cc3c(C)cc(C)n3[B-]2(F)F)C=C1 [Bu-BODIPY]
Effect on cell growth (relative cell number) (HeLa cells; HeLa, 5–20 µM (Bu-BODIPY up to 20 µM), 3 days): hardly affected | IC50 (LM8 cells): > 20 µM | IC50 (3T3-L1 cells): > 20 µM | Effect on basal rate of O2 consumption (mouse liver mitochondria; 1–100 µM): had no effect | PC100 (µM) for Mito. O2 consumption (mouse liver mitochondria; 100% promoting concentration: doubles the basal rate of oxygen consumption, 30°C): >100 µM

Structure (SMILES): CCCCCC(=O)c1c(O)c(Cl)c(OC)c(Cl)c1O [DIF-1, 1-(3,5-dichloro-2,6-dihydroxy-4-methoxyphenyl)hexan-1-one, reference compound]
Effect on cell growth (relative cell number) (HeLa cells; HeLa, 20 µM, 3 days): significantly suppressed | IC50 [1]: 0.54 µM | Binding to and inhibition of mMDH [2]: binds to mitochondrial malate dehydrogenase (mMDH) and inhibits its activity | Inhibition of PDE1 [3]: direct inhibitors of PDE1

Structure (SMILES): [N-]=[N+]=[N-].[Na+] [azide, NaN3, reference compound]
Effect on cell growth (relative cell number) (HeLa cells): suppressed cell growth | Expression of cyclin D1 [4]: suppressed | Expression of cyclin D3 [4]: but not of cyclin D3
